Measurements: ChEMBL document CHEMBL1201862, “PubChem BioAssay data set” (2004)
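Step 1: Grow cells in 96-well plates. Step 2: Expose to compound for 48 hours at 5 concentrations. Step 3: Interpolate endpoints linearly; if unreached, use highest concentration. Abbreviation: GI50, concentration required for 50% inhibition of growth.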 Active and inactive are the calls of the source. Cut-off read from the data, not from the text of the source: active = GI50 up to about 1.1 µM and inactive = higher.

Experiments:
Experiment in all cases: DTP human tumour cell line panel, 48 h
BT-549 = system: BT-549
OVCAR-8 = system: OVCAR-8
HL-60 = system: HL-60
SF-268 = system: SF-268
OVCAR-4 = system: OVCAR-4
KM12 = system: KM12
HCT-116 = system: HCT-116
SN12C = system: SN12C
MCF7 = system: MCF7
OVCAR-5 = system: OVCAR-5
COLO 205 = system: COLO 205
NCI-H460 = system: NCI-H460
NCI-H23 = system: NCI-H23
A549 = system: A549
HCT-15 = system: HCT-15
SW-620 = system: SW-620
HT-29 = system: HT-29
SNB-19 = system: SNB-19
HOP-92 = system: HOP-92
SF-539 = system: SF-539
EKVX = system: EKVX
ACHN = system: ACHN
IGROV-1 = system: IGROV-1
MDA-MB-435 = system: MDA-MB-435
SF-295 = system: SF-295
OVCAR-3 = system: OVCAR-3
T47D = system: T47D
CAKI-1 = system: CAKI-1
K562 = system: K562
DU-145 = system: DU-145
NCI-H226 = system: NCI-H226
SK-MEL-5 = system: SK-MEL-5
HOP-62 = system: HOP-62
NCI-H522 = system: NCI-H522
A498 = system: A498
PC-3 = system: PC-3
U-251 = system: U-251
Malme-3M = system: Malme-3M
MOLT-4 = system: MOLT-4
MDA-MB-231 = system: MDA-MB-231
CCRF-CEM = system: CCRF-CEM
RPMI-8226 = system: RPMI-8226
SK-MEL-28 = system: SK-MEL-28
SK-MEL-2 = system: SK-MEL-2
SK-OV-3 = system: SK-OV-3
TK-10 = system: TK-10
M14 = system: M14
RXF 393 = system: RXF 393
UACC-62 = system: UACC-62
LOX IMVI = system: LOX IMVI
Hs-578T = system: Hs-578T
MDA-N = system: MDA-N
786-0 = system: 786-0
SNB-75 = system: SNB-75
NCI/ADR-RES = system: NCI/ADR-RES
UACC-257 = system: UACC-257
UO-31 = system: UO-31

Measured: GI50

O=C1N/C(=N/N=C/C(O)C(O)C(O)C(O)CO)N/C1=C\c1ccco1 (centres undefined)
inactive: BT-549 > 100 µM | OVCAR-8 > 100 µM | HL-60 > 100 µM | SF-268 > 100 µM | OVCAR-4 > 100 µM | KM12 > 100 µM | HCT-116 > 100 µM | SN12C > 100 µM | MCF7 > 100 µM | OVCAR-5 > 100 µM | COLO 205 > 100 µM | NCI-H460 > 100 µM | NCI-H23 > 100 µM | A549 > 100 µM | SW-620 > 100 µM | HT-29 > 100 µM | SNB-19 > 100 µM | HOP-92 > 100 µM | SF-539 > 100 µM | EKVX > 100 µM | ACHN > 100 µM | IGROV-1 > 100 µM | MDA-MB-435 > 100 µM | SF-295 > 100 µM | OVCAR-3 > 100 µM | T47D > 100 µM | CAKI-1 > 100 µM | K562 > 100 µM | DU-145 > 100 µM | NCI-H226 > 100 µM | SK-MEL-5 > 100 µM | HOP-62 > 100 µM | NCI-H522 81.7 µM | A498 > 100 µM | PC-3 32.3 µM | U-251 89.7 µM | Malme-3M > 100 µM | MOLT-4 > 100 µM | MDA-MB-231 > 100 µM | CCRF-CEM 48.4 µM | RPMI-8226 > 100 µM | SK-MEL-28 > 100 µM | SK-MEL-2 93.8 µM | SK-OV-3 > 100 µM | TK-10 > 100 µM | M14 > 100 µM | RXF 393 > 100 µM | UACC-62 > 100 µM | LOX IMVI > 100 µM | Hs-578T > 100 µM | MDA-N > 100 µM | 786-0 > 100 µM | SNB-75 > 100 µM | NCI/ADR-RES > 100 µM | UACC-257 > 100 µM
> 100 µM: HCT-15

CCN(CC)CCSc1nc(-c2c[nH]c3nc(C)ccc3c2=O)n[nH]1
> 100 µM: HCT-15
inactive: BT-549 > 100 µM | OVCAR-8 > 100 µM | HL-60 > 100 µM | SF-268 > 100 µM | OVCAR-4 > 100 µM | KM12 > 100 µM | HCT-116 > 100 µM | UO-31 > 100 µM | SN12C > 100 µM | MCF7 > 100 µM | OVCAR-5 > 100 µM | COLO 205 > 100 µM | NCI-H460 > 100 µM | NCI-H23 > 100 µM | A549 > 100 µM | SW-620 > 100 µM | HT-29 > 100 µM | SNB-19 > 100 µM | EKVX > 100 µM | ACHN > 100 µM | IGROV-1 > 100 µM | MDA-MB-435 > 100 µM | SF-295 > 100 µM | OVCAR-3 > 100 µM | T47D > 100 µM | CAKI-1 > 100 µM | K562 > 100 µM | DU-145 > 100 µM | NCI-H226 > 100 µM | SK-MEL-5 > 100 µM | HOP-62 > 100 µM | NCI-H522 > 100 µM | A498 > 100 µM | PC-3 > 100 µM | U-251 > 100 µM | Malme-3M > 100 µM | MOLT-4 > 100 µM | MDA-MB-231 > 100 µM | CCRF-CEM > 100 µM | RPMI-8226 > 100 µM | SK-MEL-28 > 100 µM | SK-MEL-2 > 100 µM | TK-10 > 100 µM | M14 > 100 µM | RXF 393 > 100 µM | UACC-62 > 100 µM | LOX IMVI > 100 µM | Hs-578T > 100 µM | MDA-N > 100 µM | 786-0 > 100 µM | NCI/ADR-RES > 100 µM | UACC-257 > 100 µM
